Experimental data as given in ChEMBL document CHEMBL2440075, “In vitro structure-activity relationships of aplysinopsin analogs and their in vivo evaluation in the chick anxiety-depression model” (Bioorg Med Chem, 2013).

Legend:
[1] = biological target: T1, 5-hydroxytryptamine receptor 2C (Homo sapiens, UniProt P28335); assay: Displacement of [3H]mesulergine from human recombinant 5HT2C receptor expressed in Flp-IN HEK cells; type: cell-based, HEK293
T1 sequence (P28335 whole entry): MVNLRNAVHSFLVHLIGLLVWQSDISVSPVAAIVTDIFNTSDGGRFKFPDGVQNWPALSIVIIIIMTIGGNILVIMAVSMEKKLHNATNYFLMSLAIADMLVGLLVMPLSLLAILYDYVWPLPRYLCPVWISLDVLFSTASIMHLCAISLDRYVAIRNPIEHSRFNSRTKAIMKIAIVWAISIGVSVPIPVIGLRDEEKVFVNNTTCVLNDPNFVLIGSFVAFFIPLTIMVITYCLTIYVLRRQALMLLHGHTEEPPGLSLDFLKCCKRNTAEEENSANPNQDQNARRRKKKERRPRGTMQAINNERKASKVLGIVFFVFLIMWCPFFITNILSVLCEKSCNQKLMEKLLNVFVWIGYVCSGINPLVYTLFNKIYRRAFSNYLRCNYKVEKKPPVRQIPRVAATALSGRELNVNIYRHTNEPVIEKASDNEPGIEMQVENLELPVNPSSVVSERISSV

[2] = biological target: 5-hydroxytryptamine receptor 2B (Homo sapiens, UniProt P41595); assay: Displacement of [3H]LSD from human recombinant 5HT2B receptor stably expressed in HEK cells; type: cell-based, HEK293
[3] = biological target: 5-hydroxytryptamine receptor 4 (Homo sapiens, UniProt Q13639); assay: Displacement of [3H]GR113808 from human recombinant 5HT4 receptor
[4] = biological target: 5-hydroxytryptamine receptor 2A (Rattus norvegicus, UniProt P14842); assay: Displacement of [3H]ketanserin from rat 5HT2A receptor stably expressed in 3T3 cells; type: cell-based
[5] = biological target: 5-hydroxytryptamine receptor 1E (Homo sapiens, UniProt P28566); assay: Displacement of [3H]5-HT from human recombinant 5HT1E receptor stably expressed in HEK cells; type: cell-based, HEK293
[6] = biological target: 5-hydroxytryptamine receptor 6 (Homo sapiens, UniProt P50406); assay: Displacement of [3H]LSD from human recombinant 5HT6 receptor stably expressed in HEK cells; type: cell-based, HEK293
[7] = biological target: 5-hydroxytryptamine receptor 5A (Homo sapiens, UniProt P47898); assay: Displacement of [3H]LSD from human recombinant 5HT5A receptor expressed in Flp-In CHO cells; type: cell-based
[8] = biological target: 5-hydroxytryptamine receptor 1B (Homo sapiens, UniProt P28222); assay: Displacement of [3H]5-CT from human recombinant 5HT1B receptor stably expressed in HEK cells; type: cell-based, HEK293
[9] = biological target: 5-hydroxytryptamine receptor 1D (Homo sapiens, UniProt P28221); assay: Displacement of [3H]5-CT from human recombinant 5HT1D receptor expressed in HEKT cells; type: cell-based
[10] = biological target: T2, 5-hydroxytryptamine receptor 1A (Homo sapiens, UniProt P08908); assay: Displacement of [3H]way100635 from human recombinant 5HT1A receptor stably expressed in CHO cells; type: cell-based
T2 sequence (P08908 whole entry): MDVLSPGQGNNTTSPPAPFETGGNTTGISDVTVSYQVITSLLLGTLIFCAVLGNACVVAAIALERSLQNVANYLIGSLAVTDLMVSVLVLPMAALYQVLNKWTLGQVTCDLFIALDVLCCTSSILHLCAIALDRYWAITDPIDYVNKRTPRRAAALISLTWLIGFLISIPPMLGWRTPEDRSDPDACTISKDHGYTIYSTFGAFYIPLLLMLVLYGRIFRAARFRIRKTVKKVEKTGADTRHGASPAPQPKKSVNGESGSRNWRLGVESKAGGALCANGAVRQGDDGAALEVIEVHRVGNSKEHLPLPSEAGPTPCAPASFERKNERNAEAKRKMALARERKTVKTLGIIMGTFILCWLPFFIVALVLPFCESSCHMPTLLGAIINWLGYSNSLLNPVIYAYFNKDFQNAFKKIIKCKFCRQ

[11] = biological target: T3, 5-hydroxytryptamine receptor 3A (Homo sapiens, UniProt P46098); assay: Displacement of [3H]GR65630 from human recombinant 5HT3 receptor expressed in HEKT cells; type: cell-based
T3 sequence (P46098 whole entry): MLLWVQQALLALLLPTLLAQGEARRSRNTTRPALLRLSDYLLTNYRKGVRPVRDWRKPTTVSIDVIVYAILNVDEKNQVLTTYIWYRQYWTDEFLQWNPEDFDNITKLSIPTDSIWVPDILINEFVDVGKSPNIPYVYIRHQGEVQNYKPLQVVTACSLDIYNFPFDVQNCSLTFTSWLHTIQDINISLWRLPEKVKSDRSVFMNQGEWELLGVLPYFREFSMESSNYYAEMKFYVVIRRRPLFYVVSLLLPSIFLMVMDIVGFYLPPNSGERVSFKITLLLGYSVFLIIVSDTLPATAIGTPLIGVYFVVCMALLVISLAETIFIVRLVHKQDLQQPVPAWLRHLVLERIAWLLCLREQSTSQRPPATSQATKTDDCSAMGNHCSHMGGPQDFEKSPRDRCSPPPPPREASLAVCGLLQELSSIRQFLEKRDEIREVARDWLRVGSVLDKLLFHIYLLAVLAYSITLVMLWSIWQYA

[12] = biological target: 5-hydroxytryptamine receptor 7 (Homo sapiens, UniProt P34969); assay: Displacement of [3H]LSD from human recombinant 5HT7 receptor stably expressed in HEK cells; type: cell-based, HEK293
5-hydroxytryptamine receptor 7, sequence (P34969 whole entry): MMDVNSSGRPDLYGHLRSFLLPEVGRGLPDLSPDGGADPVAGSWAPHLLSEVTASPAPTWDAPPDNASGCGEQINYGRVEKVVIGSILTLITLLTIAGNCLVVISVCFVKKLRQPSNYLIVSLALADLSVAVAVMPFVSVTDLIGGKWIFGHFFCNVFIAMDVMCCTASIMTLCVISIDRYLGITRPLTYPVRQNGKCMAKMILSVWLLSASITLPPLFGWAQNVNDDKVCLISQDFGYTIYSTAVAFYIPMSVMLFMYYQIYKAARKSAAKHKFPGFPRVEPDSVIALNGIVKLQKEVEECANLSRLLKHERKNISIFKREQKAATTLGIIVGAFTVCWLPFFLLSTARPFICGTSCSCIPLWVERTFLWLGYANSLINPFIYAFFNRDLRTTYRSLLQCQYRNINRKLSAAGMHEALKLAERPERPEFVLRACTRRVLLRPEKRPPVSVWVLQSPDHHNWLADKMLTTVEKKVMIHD

5-hydroxytryptamine receptor 1D, sequence (P28221 whole entry): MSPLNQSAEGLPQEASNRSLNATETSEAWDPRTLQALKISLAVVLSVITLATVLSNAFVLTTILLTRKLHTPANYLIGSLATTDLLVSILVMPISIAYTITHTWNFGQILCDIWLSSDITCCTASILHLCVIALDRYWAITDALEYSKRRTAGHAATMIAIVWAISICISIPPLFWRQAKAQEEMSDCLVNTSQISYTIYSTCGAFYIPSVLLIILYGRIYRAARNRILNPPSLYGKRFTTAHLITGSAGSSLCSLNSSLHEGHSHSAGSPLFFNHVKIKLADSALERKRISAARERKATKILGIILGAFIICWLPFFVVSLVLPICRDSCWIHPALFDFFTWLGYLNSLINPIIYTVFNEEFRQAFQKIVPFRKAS
5-hydroxytryptamine receptor 6, sequence (P50406 whole entry): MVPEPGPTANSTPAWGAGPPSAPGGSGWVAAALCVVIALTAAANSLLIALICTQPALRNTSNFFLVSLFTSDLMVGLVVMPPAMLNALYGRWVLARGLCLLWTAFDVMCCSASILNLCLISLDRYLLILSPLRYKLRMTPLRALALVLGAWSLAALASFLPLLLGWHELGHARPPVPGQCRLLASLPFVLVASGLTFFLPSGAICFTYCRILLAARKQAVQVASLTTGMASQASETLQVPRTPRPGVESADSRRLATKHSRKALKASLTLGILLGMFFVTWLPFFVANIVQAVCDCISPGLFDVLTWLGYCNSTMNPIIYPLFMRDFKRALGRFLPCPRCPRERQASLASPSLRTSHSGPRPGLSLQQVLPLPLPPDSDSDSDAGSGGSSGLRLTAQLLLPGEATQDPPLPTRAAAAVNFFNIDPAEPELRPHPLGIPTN
5-hydroxytryptamine receptor 2B, sequence (P41595 whole entry): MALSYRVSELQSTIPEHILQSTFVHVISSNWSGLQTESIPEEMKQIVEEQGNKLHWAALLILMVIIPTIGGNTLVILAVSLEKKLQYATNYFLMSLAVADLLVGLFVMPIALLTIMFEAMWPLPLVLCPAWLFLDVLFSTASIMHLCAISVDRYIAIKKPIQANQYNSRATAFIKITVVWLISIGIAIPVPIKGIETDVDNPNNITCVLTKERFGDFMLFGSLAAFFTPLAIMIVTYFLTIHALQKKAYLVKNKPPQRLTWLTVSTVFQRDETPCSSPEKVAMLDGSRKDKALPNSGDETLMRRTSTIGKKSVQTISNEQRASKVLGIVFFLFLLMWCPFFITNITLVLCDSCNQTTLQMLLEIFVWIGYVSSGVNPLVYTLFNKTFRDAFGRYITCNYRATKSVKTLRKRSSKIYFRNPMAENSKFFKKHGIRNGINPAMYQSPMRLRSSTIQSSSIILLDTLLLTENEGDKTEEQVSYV
5-hydroxytryptamine receptor 4, sequence (Q13639 whole entry): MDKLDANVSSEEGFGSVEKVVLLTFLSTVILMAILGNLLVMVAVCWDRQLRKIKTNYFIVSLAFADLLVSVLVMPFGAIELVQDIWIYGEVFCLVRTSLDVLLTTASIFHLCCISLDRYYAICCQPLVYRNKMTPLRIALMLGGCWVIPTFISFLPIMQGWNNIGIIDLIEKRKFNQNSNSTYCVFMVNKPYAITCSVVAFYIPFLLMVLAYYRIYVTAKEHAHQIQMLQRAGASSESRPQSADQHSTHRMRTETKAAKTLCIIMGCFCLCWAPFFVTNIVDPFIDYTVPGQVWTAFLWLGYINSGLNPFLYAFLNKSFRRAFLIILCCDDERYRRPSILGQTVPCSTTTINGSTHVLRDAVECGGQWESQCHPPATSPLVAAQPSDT
5-hydroxytryptamine receptor 1E, sequence (P28566 whole entry): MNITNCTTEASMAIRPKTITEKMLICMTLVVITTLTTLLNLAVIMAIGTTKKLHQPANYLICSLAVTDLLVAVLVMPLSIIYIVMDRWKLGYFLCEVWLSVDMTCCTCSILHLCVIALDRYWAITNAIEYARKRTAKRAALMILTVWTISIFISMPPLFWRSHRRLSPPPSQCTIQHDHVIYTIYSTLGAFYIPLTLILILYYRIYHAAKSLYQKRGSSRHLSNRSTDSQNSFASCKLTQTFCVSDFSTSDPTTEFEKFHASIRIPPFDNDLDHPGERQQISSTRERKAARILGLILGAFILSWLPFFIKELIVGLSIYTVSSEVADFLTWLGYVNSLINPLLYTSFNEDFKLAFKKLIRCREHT
5-hydroxytryptamine receptor 2A, sequence (P14842 whole entry): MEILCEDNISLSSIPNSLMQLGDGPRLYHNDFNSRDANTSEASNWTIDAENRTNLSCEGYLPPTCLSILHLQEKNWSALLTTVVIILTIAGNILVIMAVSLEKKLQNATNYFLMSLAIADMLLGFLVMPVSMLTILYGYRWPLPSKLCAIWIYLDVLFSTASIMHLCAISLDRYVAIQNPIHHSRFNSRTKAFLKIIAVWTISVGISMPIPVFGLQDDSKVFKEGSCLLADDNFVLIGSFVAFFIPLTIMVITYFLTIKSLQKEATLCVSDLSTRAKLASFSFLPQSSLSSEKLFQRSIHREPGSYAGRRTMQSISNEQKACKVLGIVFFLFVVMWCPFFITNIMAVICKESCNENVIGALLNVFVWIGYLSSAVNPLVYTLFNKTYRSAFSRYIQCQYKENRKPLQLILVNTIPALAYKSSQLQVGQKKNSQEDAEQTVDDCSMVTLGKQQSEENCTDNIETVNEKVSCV
5-hydroxytryptamine receptor 5A, sequence (P47898 whole entry): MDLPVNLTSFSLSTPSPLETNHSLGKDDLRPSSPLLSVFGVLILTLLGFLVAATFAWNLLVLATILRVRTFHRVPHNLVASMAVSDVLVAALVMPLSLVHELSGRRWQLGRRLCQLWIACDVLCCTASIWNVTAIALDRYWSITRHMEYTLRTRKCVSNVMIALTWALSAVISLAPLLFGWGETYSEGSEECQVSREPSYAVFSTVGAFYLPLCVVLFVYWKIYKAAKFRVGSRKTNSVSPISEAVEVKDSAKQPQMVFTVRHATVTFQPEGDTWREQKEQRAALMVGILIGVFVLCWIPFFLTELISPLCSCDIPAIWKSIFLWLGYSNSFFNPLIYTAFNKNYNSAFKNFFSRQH
5-hydroxytryptamine receptor 1B, sequence (P28222 whole entry): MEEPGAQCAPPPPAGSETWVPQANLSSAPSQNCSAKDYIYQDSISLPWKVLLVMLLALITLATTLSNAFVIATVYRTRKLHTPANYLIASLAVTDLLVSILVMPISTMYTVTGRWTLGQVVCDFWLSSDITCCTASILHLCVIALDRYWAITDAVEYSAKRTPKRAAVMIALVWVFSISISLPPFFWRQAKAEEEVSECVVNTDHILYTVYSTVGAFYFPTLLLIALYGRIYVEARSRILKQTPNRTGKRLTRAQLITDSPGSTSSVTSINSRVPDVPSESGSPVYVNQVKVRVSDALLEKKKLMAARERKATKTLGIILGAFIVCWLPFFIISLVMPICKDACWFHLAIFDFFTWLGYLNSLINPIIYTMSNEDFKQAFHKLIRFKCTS

Compound | Ki [1] [nM] | Ki [2] [nM] | Ki [4] [nM] | Ki [7] [nM] | Ki [10] [nM] | other results
N=C1NC(=O)/C(=C\c2c[nH]c3c(Br)cccc23)N1 | 841 | 457 | 2150 | 112 | – | Ki [5]: > 10000 nM; Ki [6]: 1400 nM
C/N=C1/N/C(=C/c2c[nH]c3cccc(Br)c23)C(=O)N1C | 2340 | 774 | – | – | – | Ki [8]: > 10000 nM; Ki [9]: > 10000 nM
C/N=C1\N(C)C(=O)/C(=C\c2c[nH]c3cc(Br)ccc23)N1C | 1240 | 2470 | – | 4680 | > 10000 | –
C/N=C1\NC(=O)/C(=C/c2c[nH]c3c(Br)cccc23)N1 | 678 | 353 | 3590 | 3320 | – | Ki [3]: 603 nM
CN1C(=N)N(C)/C(=C/c2c[nH]c3ccccc23)C1=O [APLYSINOPSIN] | 10000 | 4450 | – | – | > 10000 | Ki [6]: 8770 nM; Ki [11]: 3030 nM
C/N=C1\NC(=O)/C(=C/c2c[nH]c3ccccc23)N1 | 970 | 287 | – | – | – | Ki [3]: 928 nM
O=C1NC(=S)N/C1=C\c1c[nH]c2c(Br)cccc12 | – | – | – | – | – | Ki [3]: 2210 nM
C/N=C1/N/C(=C/c2c[nH]c3c(Br)cccc23)C(=O)N1C | 10000 | 839 | – | – | – | Ki [5]: > 10000 nM
N=C1NC(=O)/C(=C\c2c[nH]c3cccc(Br)c23)N1 | 604 | 447 | 4620 | 123 | – | –
O=C1NC(=S)N/C1=C\c1c[nH]c2cccc(Br)c12 | 1870 | 369 | – | – | – | Ki [3]: 2360 nM
C/N=C1\NC(=O)/C(=C\c2c[nH]c3c(Br)cccc23)N1C | 2210 | 661 | 7970 | 1420 | > 10000 | Ki [5]: > 10000 nM; Ki [6]: 2310 nM
CN1C(=N)NC(=O)/C1=C\c1c[nH]c2c(Br)cccc12 | 4130 | 1420 | > 10000 | 1320 | – | Ki [5]: > 10000 nM
C/N=C1/N/C(=C/c2c[nH]c3ccccc23)C(=O)N1C | 10000 | 5060 | – | – | – | Ki [5]: > 10000 nM
CSC1=NC(=O)/C(=C/c2c[nH]c3cccc(Br)c23)N1 | 885 | 780 | – | – | – | Ki [3]: 1060 nM
C/N=C1\NC(=O)/C(=C\c2c[nH]c3ccccc23)N1C [ISOPLYSIN A] | 2350 | 716 | – | – | – | –
CN1C(=N)NC(=O)/C1=C\c1c[nH]c2ccccc12 | 4780 | 964 | – | – | – | –
N=C1NC(=O)/C(=C\c2c[nH]c3ccccc23)N1 | 349 | 232 | 1170 | 101 | – | –
C/N=C1\N(C)C(=O)/C(=C\c2c[nH]c3ccccc23)N1C [METHYLAPLYSINOPSIN] | 10000 | 4550 | > 10000 | – | – | Ki [5]: > 10000 nM; Ki [6]: 1720 nM; Ki [11]: 1510 nM
C/N=C1\N(C)C(=O)/C(=C\c2c[nH]c3c(Br)cccc23)N1C | 6470 | 965 | – | 6910 | > 10000 | Ki [8]: > 10000 nM; Ki [6]: 7300 nM; Ki [9]: 8870 nM
CN1C(=N)NC(=O)/C1=C\c1c[nH]c2cccc(Br)c12 | 2010 | 784 | 1410 | – | – | Ki [12]: 799 nM
CSC1=NC(=O)/C(=C/c2c[nH]c3c(Br)cccc23)N1 | – | 993 | – | – | – | Ki [3]: 2350 nM
C/N=C1\N(C)C(=O)/C(=C\c2c[nH]c3cccc(Br)c23)N1C | 1860 | 897 | > 10000 | 5080 | 6930 | Ki [5]: > 10000 nM; Ki [6]: 7520 nM; Ki [11]: 591 nM; Ki [9]: 2550 nM
CSC1=NC(=O)/C(=C/c2c[nH]c3cc(Br)ccc23)N1 | 4370 | 1140 | – | – | – | Ki [3]: 5310 nM
C/N=C1\NC(=O)/C(=C\c2c[nH]c3cc(Br)ccc23)N1C | 2280 | 489 | – | – | – | –
C/N=C1\NC(=O)/C(=C/c2c[nH]c3cccc(Br)c23)N1 | 80 | 50 | 470 | 3370 | – | Ki [6]: 3730 nM; Ki [3]: 472 nM

The next lines start with results.

Ki [1] [nM] | Ki [2] [nM] | Ki [4] [nM] | Ki [7] [nM] | Ki [10] [nM] | Compound | other results
980 | 154 | – | – | – | C/N=C1\NC(=O)/C(=C/c2c[nH]c3cc(Br)ccc23)N1 | Ki [3]: 1160 nM
10000 | 1270 | – | – | – | C/N=C1/N/C(=C/c2c[nH]c3cc(Br)ccc23)C(=O)N1C | Ki [5]: > 10000 nM
4350 | 1680 | – | – | 2750 | O=C1NC(=S)N/C1=C\c1c[nH]c2ccc(Br)cc12 | –
1260 | 1250 | – | 6720 | 527 | CN1C(=N)N(C)/C(=C/c2c[nH]c3ccc(Br)cc23)C1=O | Ki [11]: 1000 nM
10000 | 593 | – | 1550 | 7270 | CN1C(=N)N/C(=C/c2c[nH]c3c(Br)cccc23)C1=O | Ki [5]: > 10000 nM
1080 | 883 | – | – | 2620 | C/N=C1\NC(=O)/C(=C\c2c[nH]c3ccc(Br)cc23)N1C | Ki [11]: 6180 nM; Ki [12]: 4110 nM
2090 | 1350 | – | – | – | CSC1=NC(=O)/C(=C/c2c[nH]c3ccc(Br)cc23)N1 | Ki [3]: 3800 nM
10000 | 1280 | – | – | – | CN1C(=N)N/C(=C/c2c[nH]c3ccccc23)C1=O | Ki [5]: > 10000 nM
426 | 93 | 676 | – | – | C/N=C1\NC(=O)/C(=C/c2c[nH]c3ccc(Br)cc23)N1 | Ki [6]: 860 nM; Ki [3]: 226 nM
3880 | 1380 | – | – | – | CN1C(=N)NC(=O)/C1=C\c1c[nH]c2cc(Br)ccc12 | –
1270 | 94 | 279 | 2330 | 7360 | CN1C(=N)N/C(=C/c2c[nH]c3ccc(Br)cc23)C1=O | Ki [12]: 1220 nM
1700 | 228 | 8670 | 1280 | 3440 | CN1C(=N)N/C(=C/c2c[nH]c3cccc(Br)c23)C1=O | –
2430 | 1620 | – | 9120 | 2510 | C/N=C1\N(C)C(=O)/C(=C\c2c[nH]c3ccc(Br)cc23)N1C | Ki [11]: 2620 nM; Ki [12]: 5370 nM
1920 | 190 | 4160 | 5360 | > 10000 | CN1C(=N)N/C(=C/c2c[nH]c3cc(Br)ccc23)C1=O | –
1340 | 520 | > 10000 | – | – | C/N=C1/N/C(=C/c2c[nH]c3ccc(Br)cc23)C(=O)N1C | Ki [12]: 3350 nM
2450 | 852 | – | – | 3210 | CN1C(=N)NC(=O)/C1=C\c1c[nH]c2ccc(Br)cc12 | Ki [5]: > 10000 nM
201 | 269 | 3130 | 184 | – | N=C1NC(=O)/C(=C\c2c[nH]c3cc(Br)ccc23)N1 | Ki [5]: > 10000 nM
– | 2710 | – | – | – | O=C1NC(=S)N/C1=C\c1c[nH]c2cc(Br)ccc12 | –
1700 | 2670 | – | 9620 | > 10000 | CN1C(=N)N(C)/C(=C/c2c[nH]c3cc(Br)ccc23)C1=O | –
